Measurements as given in ChEMBL document CHEMBL5375944, “Discovery of Potent Agonists for the Predominant Variant of the Orphan MAS-Related G Protein-Coupled Receptor X4 (MRGPRX4)” (J Med Chem, 2023).
Converted amounts (≈) assume the structure as drawn.

What was measured:
[1] = Agonist activity at MRGPRX4 83S in human LN229 glioblastoma cells assessed as change in intracellular calcium level by calcium mobilization assay; type: cell-based
[2] = Agonist activity at MRGPRX4 83S (unknown origin) expressed in CHO-K1 cells assessed as induction of beta-arrestin recruitment measured after 90 mins by luminescence assay; type: cell-based; details: Homo sapiens, CHO-K1, 1.5 h
[3] = Agonist activity at MRGPRX4 83L (unknown origin) expressed in human 1321N1 glioblastoma cells assessed as change in intracellular calcium level by calcium mobilization assay; type: cell-based
[4] = Agonist activity at MRGPRX4 83L (unknown origin) expressed in CHO cells assessed as induction of beta-arrestin recruitment measured after 90 mins by luminescence assay; type: cell-based; details: Homo sapiens, 1.5 h
[5] = Agonist activity at MRGPRX4 83L (unknown origin) expressed in HEK293 cells co-expressing Gq assessed as change in intracellular calcium level by FLIPR assay; type: cell-based; details: Homo sapiens
[6] = Agonist activity at MRGPRX4 83S in human LN229 glioblastoma cells assessed as change in intracellular calcium level at 10 uM by calcium mobilization assay relative to control
[7] = biological target: Mas-related G-protein coupled receptor member X1 (Homo sapiens, UniProt Q96LB2); assay: Agonist activity at MRGPRX1 (unknown origin) by beta-arrestin recruitment assay
[8] = biological target: Mas-related G-protein coupled receptor member X3 (Homo sapiens, UniProt Q96LB0); assay: Agonist activity at MRGPRX3 (unknown origin) by beta-arrestin recruitment assay; type: functional
[9] = biological target: G-protein coupled receptor 143 (Homo sapiens, UniProt P51810); assay: Agonist activity at GPR143 (unknown origin) by beta-arrestin recruitment assay
[10] = Agonist activity at MRGPRX4 83S (unknown origin) expressed in HEK293 cells co-expressing Gq assessed as change in intracellular calcium level by FLIPR assay; type: cell-based; details: Homo sapiens
[11] = Agonist activity at MRGPRX4 83L (unknown origin) expressed in HEK293 cells co-expressing Galpha15 assessed as change in intracellular calcium level by FLIPR assay; type: cell-based; details: Homo sapiens
[12] = Agonist activity at MRGPRX4 83L (unknown origin) expressed in human 1321N1 glioblastoma cells assessed as change in intracellular calcium level 10 uM by calcium mobilization assay relative to control
LN-229 = assay: Cytotoxicity against human LN-229 glioblastoma cells assessed as cell viability upto 30 uM measured after 3 days by MTT assay; type: toxicity, cell-based; details: ln-229, 72 h, time 3 day
[13] = Kinetic solubility of compound in PBS at pH 7.4 incubated for 3 days; type: physicochemical; details: time 3 day, read-out: Kinetic_solubility
[14] = Metabolic stability of the compound in human liver microsomes assessed as half life at 1 uM in presence of NADPH by LC-MS analysis; type: ADME, Microsome

Sequence of Mas-related G-protein coupled receptor member X1 (Q96LB2 whole entry): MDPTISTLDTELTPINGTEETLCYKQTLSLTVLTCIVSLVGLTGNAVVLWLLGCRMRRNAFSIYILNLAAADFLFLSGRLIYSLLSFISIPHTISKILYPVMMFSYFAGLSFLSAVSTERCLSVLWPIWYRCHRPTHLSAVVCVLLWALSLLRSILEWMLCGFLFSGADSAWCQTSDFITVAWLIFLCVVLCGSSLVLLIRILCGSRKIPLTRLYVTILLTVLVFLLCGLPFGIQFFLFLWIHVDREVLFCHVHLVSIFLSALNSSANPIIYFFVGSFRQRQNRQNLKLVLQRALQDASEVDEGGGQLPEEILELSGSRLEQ
Sequence of G-protein coupled receptor 143 (P51810 whole entry): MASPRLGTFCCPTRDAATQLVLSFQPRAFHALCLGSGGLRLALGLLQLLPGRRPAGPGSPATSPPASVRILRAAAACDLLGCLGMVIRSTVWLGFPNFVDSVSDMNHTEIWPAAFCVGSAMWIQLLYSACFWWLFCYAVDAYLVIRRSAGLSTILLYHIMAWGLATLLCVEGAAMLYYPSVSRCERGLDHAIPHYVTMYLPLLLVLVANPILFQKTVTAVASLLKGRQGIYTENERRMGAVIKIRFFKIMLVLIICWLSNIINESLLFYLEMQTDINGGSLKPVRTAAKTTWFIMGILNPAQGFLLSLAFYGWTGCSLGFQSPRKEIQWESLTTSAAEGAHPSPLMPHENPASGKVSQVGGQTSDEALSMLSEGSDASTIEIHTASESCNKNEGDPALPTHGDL
Sequence of Mas-related G-protein coupled receptor member X3 (Q96LB0 whole entry): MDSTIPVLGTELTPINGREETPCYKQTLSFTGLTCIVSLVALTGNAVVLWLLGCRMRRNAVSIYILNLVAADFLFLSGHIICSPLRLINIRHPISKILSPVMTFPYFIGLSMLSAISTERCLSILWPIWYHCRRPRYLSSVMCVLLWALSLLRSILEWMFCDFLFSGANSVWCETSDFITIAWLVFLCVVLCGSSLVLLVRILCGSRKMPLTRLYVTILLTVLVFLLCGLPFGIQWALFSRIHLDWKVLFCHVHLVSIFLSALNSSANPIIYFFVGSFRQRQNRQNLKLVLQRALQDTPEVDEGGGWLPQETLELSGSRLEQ

SMILES: C#CCn1c(=O)c2[nH]c(CCc3ccccc3)nc2n(CCCCP(=O)(O)O)c1=O
- EC50 [1]: 0.134 µM
- EC50 [2]: 0.399 µM
- EC50 [3]: 3.25 µM
- EC50 [4]: > 10 µM

SMILES: O=C(O)[C@@H](Cc1ccccc1)NC(=O)C12CC3CC(CC(C3)C1)C2
- EC50 [5]: 0.581 µM
- EC50 [1]: > 10 µM
- EC50 [2]: 64.1 µM
- EC50 [3]: 0.126 µM
- EC50 [4]: 6.7 µM
- Activity [6]: 1%

SMILES: C#CCn1c(=O)c2[nH]c(CCc3cccc(OC)c3)nc2n(CCCOC(C)=O)c1=O
- EC50 [1]: > 10 µM
- EC50 [2]: > 10 µM
- EC50 [3]: > 10 µM
- EC50 [4]: > 10 µM

SMILES: C#CCn1c(=O)c2c(nc(/C=C/c3cccc(OC)c3)n2C)n(CCCOP(=O)(O)O)c1=O
- EC50 [7]: > 10 µM
- EC50 [8]: > 10 µM
- EC50 [9]: > 10 µM

SMILES: C#CCn1c(=O)c2[nH]c(CCc3cccc(OC)c3)nc2n(CCCCC(=O)O)c1=O
- EC50 [1]: > 10 µM
- EC50 [2]: 6.72 µM
- EC50 [3]: > 10 µM
- EC50 [4]: > 10 µM

SMILES: C#CCn1c(=O)c2[nH]c(CCc3cccc(OC)c3)nc2n(CCCO)c1=O
- EC50 [1]: > 10 µM
- EC50 [2]: > 10 µM
- EC50 [3]: > 10 µM
- EC50 [4]: > 10 µM

SMILES: CC(C)[C@H]1CC[C@H](C(=O)N[C@H](Cc2ccccc2)C(=O)O)CC1 [NATEGLINIDE]
- EC50 [5]: 4.72 µM
- EC50 [10]: > 10 µM
- EC50 [1]: > 10 µM
- EC50 [2]: 28.4 µM
- EC50 [3]: 0.198 µM
- EC50 [4]: 4.09 µM
- Activity [6]: 0%

SMILES: C#CCn1c(=O)c2c(nc(C#Cc3cccc(OC)c3)n2C)n(CCCOP(=O)(O)O)c1=O
- EC50 [1]: > 10 µM
- EC50 [2]: > 10 µM
- EC50 [3]: > 10 µM
- EC50 [4]: > 10 µM

SMILES: C#CCn1c(=O)c2c(nc(CCc3cccc(OC)c3)n2C)n(CCCOP(=O)(O)O)c1=O
- EC50 [1]: 0.238 µM
- EC50 [2]: 0.374 µM
- EC50 [3]: 0.574 µM
- EC50 [4]: > 10 µM

SMILES: C#CCn1c(=O)c2[nH]c(C(C)Cc3ccccc3)nc2n(CCCCP(=O)(O)O)c1=O (configuration not stated)
- EC50 [1]: 0.0345 µM
- EC50 [2]: 0.0277 µM
- EC50 [3]: 6.17 µM
- EC50 [4]: 3.94 µM

SMILES: C[C@H](CCC(=O)O)[C@H]1CC[C@H]2[C@@H]3[C@@H](O)C[C@@H]4C[C@H](O)CC[C@]4(C)[C@H]3CC[C@]12C [URSODIOL]
- EC50 [11]: 4.93 µM
- EC50 [1]: 47.5 µM
- EC50 [2]: 3.27 µM
- EC50 [3]: 41.1 µM
- EC50 [4]: 33.8 µM

SMILES: C#CCn1c(=O)c2[nH]c(COc3ccccc3)nc2n(CCCCP(=O)(O)O)c1=O
- EC50 [1]: > 10 µM
- EC50 [2]: 1.85 µM
- EC50 [3]: > 10 µM
- EC50 [4]: > 10 µM

SMILES: C[C@]12C[C@@H]3C[C@](C)(C1)C[C@@](C(=O)N[C@H](Cc1ccccc1)C(=O)O)(C3)C2
- EC50 [5]: 0.149 µM
- EC50 [10]: > 10 µM
- EC50 [1]: 13.3 µM
- EC50 [2]: 3.98 µM
- EC50 [3]: 0.00656 µM
- EC50 [4]: 0.548 µM

SMILES: C[C@H](CCC(=O)NCCS(=O)(=O)O)[C@H]1CC[C@H]2[C@@H]3CC[C@@H]4C[C@H](O)CC[C@]4(C)[C@H]3C[C@H](O)[C@]12C [TAURODEOXYCHOLIC ACID]
- EC50 [5]: 14.1 µM
- EC50 [1]: > 10 µM
- EC50 [2]: 54.5 µM
- EC50 [3]: > 10 µM
- EC50 [4]: 55.7 µM
- Activity [6]: 6%
- Activity [12]: 1%

SMILES: CCn1c(=O)c2[nH]c(CCc3cccc(OC)c3)nc2n(CCCCP(=O)(O)O)c1=O
- EC50 [1]: 0.214 µM
- EC50 [2]: 1.19 µM
- EC50 [3]: 3.8 µM
- EC50 [4]: > 10 µM

SMILES: C#CCn1c(=O)c2c(nc(/C=C/c3cccc(OC)c3)n2C)n(CCCO)c1=O
- EC50 [1]: > 10 µM

SMILES: COc1cccc(CCc2nc3c([nH]2)c(=O)n(CC2CCC2)c(=O)n3CCCCP(=O)(O)O)c1
- EC50 [1]: 0.0599 µM
- EC50 [2]: 0.0689 µM
- EC50 [3]: 1.6 µM
- EC50 [4]: > 10 µM

SMILES: C#CCn1c(=O)c2[nH]c(C(C)Cc3ccccc3)nc2n(CCCCP(=O)(O)OCC)c1=O (configuration not stated)
- EC50 [1]: > 10 µM
- EC50 [2]: > 10 µM
- EC50 [3]: > 10 µM
- EC50 [4]: > 10 µM

SMILES: C[C@H](CCC(=O)O)[C@H]1CC[C@H]2[C@@H]3CC[C@@H]4C[C@H](O)CC[C@]4(C)[C@H]3C[C@H](O)[C@]12C [DEOXYCHOLIC ACID]
- EC50 [11]: 2.6 µM
- EC50 [1]: 169 µM
- EC50 [2]: 1.68 µM
- EC50 [3]: 11.2 µM
- EC50 [4]: 24.6 µM

SMILES: C#CCn1c(=O)c2[nH]c([C@@H]3C[C@H]3c3ccccc3)nc2n(CCCCP(=O)(O)O)c1=O
- EC50 [1]: > 10 µM
- EC50 [2]: > 10 µM
- EC50 [3]: > 10 µM
- EC50 [4]: > 10 µM

SMILES: C#CCn1c(=O)c2[nH]c(CCc3cccc(OC)c3)nc2n(CCCCP(=O)(O)O)c1=O
- EC50 [1]: 0.0112 µM
- EC50 [2]: 0.032 µM
- EC50 [3]: 0.435 µM
- EC50 [4]: 5.71 µM
- Activity (LN-229): Non-Toxic
- solubility kinetic at 72 h [13]: 218 µM (≈ 100 µg/mL)
- half-life at 1 µM [14]: > 4.5 h

SMILES: C#CCn1c(=O)c2c(nc(CCc3cccc(OC)c3)n2C)n(CCCCP(=O)(O)O)c1=O
- EC50 [1]: 0.0192 µM
- EC50 [2]: 0.03 µM
- EC50 [3]: 0.333 µM
- EC50 [4]: 6.28 µM
- Activity (LN-229): Non-Toxic
- half-life at 1 µM [14]: > 16 h

SMILES: C#CCn1c(=O)c2[nH]c(CCc3cccc(OC)c3)nc2n(CCCCP(=O)(OCC)OCC)c1=O
- EC50 [1]: > 10 µM
- EC50 [2]: > 10 µM
- EC50 [3]: > 10 µM
- EC50 [4]: > 10 µM

SMILES: C#CCn1c(=O)c2[nH]c(CCc3cccc(OC)c3)nc2n(CCCCS(=O)(=O)O)c1=O
- EC50 [1]: > 10 µM
- EC50 [2]: > 10 µM
- EC50 [3]: > 10 µM
- EC50 [4]: > 10 µM

SMILES: C#CCn1c(=O)c2c(nc(-c3cccc(OC)c3)n2C)n(CCCOP(=O)(O)O)c1=O
- EC50 [1]: > 10 µM
- EC50 [2]: > 10 µM
- EC50 [3]: > 10 µM
- EC50 [4]: > 10 µM

SMILES: C#CCn1c(=O)c2[nH]c(/C=C/c3cccc(OC)c3)nc2n(CCCCP(=O)(O)O)c1=O
- EC50 [1]: 0.0116 µM
- EC50 [2]: 0.2 µM
- EC50 [3]: > 10 µM
- EC50 [4]: > 10 µM
